Experiments:
Assay in all cases: relative viability (nuclei count vs DMSO), 5 days (fraction); higher = more cells survive
XMD13-2 + Pemetrexed = compound: C1CC1C(=O)NC2=NNC3=C2C=CC(=C3)C4=CC(=CC=C4)C(=O)NC5CC5 [XMD13-2] + Nc1nc2[nH]cc(CCc3ccc(C(=O)N[C@@H](CCC(=O)O)C(=O)O)cc3)c2c(=O)[nH]1 [Pemetrexed] (partner 0.2 µM)
Procedure, shortened: (§1)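 A single step with final 0.05% Triton X-100, 1% formaldehyde and 1 ug/ml Hoechst fixed the cells and stained nuclei 5 days after treatment. Lung cancer cell lines in 1536-well plates had been treated by pin tool the day after seeding with one drug alone or a fixed anchor-drug dose plus five library-drug doses (not always all listed) in √10 steps, and nuclei were counted on 4× images. Relative viability is the ratio of nuclei in treated wells to nuclei in vehicle wells, taken as the median of duplicate plates.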

Dasatinib + Foretinib = compound: Cc1nc(Nc2ncc(C(=O)Nc3c(C)cccc3Cl)s2)cc(N2CCN(CCO)CC2)n1 [Dasatinib] + COc1cc2c(Oc3ccc(NC(=O)C4(C(=O)Nc5ccc(F)cc5)CC4)cc3F)ccnc2cc1OCCCN1CCOCC1 [Foretinib] (partner 0.25 µM)
Procedure, shortened: as §1

XMD13-2 + Pictilisib = compound: C1CC1C(=O)NC2=NNC3=C2C=CC(=C3)C4=CC(=CC=C4)C(=O)NC5CC5 [XMD13-2] + CS(=O)(=O)N1CCN(Cc2cc3nc(-c4cccc5[nH]ncc45)nc(N4CCOCC4)c3s2)CC1 [Pictilisib] (partner 1 µM)
Procedure, shortened: as §1

Dasatinib + Crizotinib = compound: Cc1nc(Nc2ncc(C(=O)Nc3c(C)cccc3Cl)s2)cc(N2CCN(CCO)CC2)n1 [Dasatinib] + C[C@@H](Oc1cc(-c2cnn(C3CCNCC3)c2)cnc1N)c1c(Cl)ccc(F)c1Cl [Crizotinib] (partner 1 µM)
Procedure, shortened: as §1

Row | Cell Line | relative viability (XMD13-2 + Pemetrexed; first compound 0.05 µM) | relative viability (XMD13-2 + Pemetrexed; first compound 0.1581 µM) | relative viability (XMD13-2 + Pemetrexed; first compound 0.5 µM) | relative viability (XMD13-2 + Pemetrexed; first compound 1.581 µM) | relative viability (XMD13-2 + Pemetrexed; first compound 5 µM) | relative viability (Dasatinib + Foretinib; first compound 0.005 µM) | relative viability (Dasatinib + Foretinib; first compound 0.01581 µM) | relative viability (Dasatinib + Foretinib; first compound 0.05 µM) | relative viability (Dasatinib + Foretinib; first compound 0.1581 µM) | relative viability (Dasatinib + Foretinib; first compound 0.5 µM) | relative viability (XMD13-2 + Pictilisib; first compound 0.05 µM) | relative viability (XMD13-2 + Pictilisib; first compound 0.1581 µM) | relative viability (XMD13-2 + Pictilisib; first compound 0.5 µM) | relative viability (XMD13-2 + Pictilisib; first compound 1.581 µM) | relative viability (XMD13-2 + Pictilisib; first compound 5 µM) | relative viability (Dasatinib + Crizotinib; first compound 0.005 µM) | relative viability (Dasatinib + Crizotinib; first compound 0.01581 µM) | relative viability (Dasatinib + Crizotinib; first compound 0.05 µM) | relative viability (Dasatinib + Crizotinib; first compound 0.1581 µM) | relative viability (Dasatinib + Crizotinib; first compound 0.5 µM)
1 | LOU-NH91 | 0.319 | 0.409 | 0.392 | 0.435 | 0.371 | 0.985 | 0.899 | 0.827 | 0.652 | 0.397 | 0.565 | 0.506 | 0.524 | 0.494 | 0.511 | 0.777 | 0.658 | 0.691 | 0.498 | 0.354
2 | LU99A | 0.208 | 0.203 | 0.189 | 0.213 | 0.187 | 0.849 |  | 0.723 | 0.59 | 0.383 | 0.298 | 0.334 | 0.32 | 0.284 | 0.254 | 0.538 | 0.458 | 0.473 | 0.274 | 0.301
3 | LXF-289 | 0.92 | 0.952 | 0.892 | 0.964 | 0.952 | 1.01 | 0.983 | 0.914 | 0.513 | 0.125 | 0.941 | 0.728 | 0.806 | 0.714 | 0.642 | 0.849 | 0.912 | 0.857 | 0.197 | 0.136
4 | NCI-H23 | 0.829 | 0.569 | 0.747 | 0.656 | 0.799 | 0.864 | 0.649 | 0.676 | 0.457 | 0.484 | 0.579 | 0.438 | 0.503 | 0.446 | 0.457 | 0.409 | 0.425 | 0.385 | 0.304 | 0.213
5 | NCI-H322M | 0.659 | 0.614 | 0.579 |  | 0.608 | 0.909 | 0.75 | 0.485 | 0.285 | 0.233 | 0.593 | 0.495 | 0.451 | 0.501 | 0.578 | 0.953 | 0.785 | 0.753 | 0.336 | 0.155
6 | NCI-H358 | 0.171 | 0.168 | 0.175 | 0.179 | 0.166 | 0.649 | 0.532 | 0.433 | 0.198 | 0.162 | 0.32 | 0.24 | 0.354 | 0.313 | 0.365 | 0.507 | 0.437 | 0.349 | 0.282 | 0.194
7 | NCI-H441 | 0.298 | 0.24 | 0.233 | 0.234 | 0.263 | 1.06 | 0.988 | 1.02 | 0.701 | 0.382 | 0.445 | 0.505 | 0.539 | 0.37 | 0.411 | 0.62 | 0.626 | 0.617 | 0.309 | 0.162
8 | NCI-H460 | 0.0636 | 0.0622 | 0.0651 | 0.0612 | 0.0633 | 1.04 | 0.904 | 0.808 | 0.716 | 0.746 | 0.532 | 0.324 | 0.363 | 0.4 | 0.36 | 0.729 | 0.602 | 0.432 | 0.243 | 0.218
9 | NCI-H520 | 0.704 | 0.636 | 0.665 | 0.573 | 0.442 | 0.631 | 0.427 | 0.36 | 0.175 | 0.175 | 0.318 | 0.299 | 0.313 | 0.275 | 0.251 | 0.656 | 0.442 | 0.419 | 0.144 | 0.138
10 | NCI-H596 | 0.478 | 0.454 | 0.518 | 0.456 | 0.492 | 0.688 | 0.66 | 0.521 | 0.376 | 0.291 | 0.447 | 0.406 | 0.351 | 0.384 | 0.411 | 0.966 | 0.811 | 0.637 | 0.519 | 0.315
11 | NCI-H647 | 0.173 | 0.168 | 0.179 | 0.164 | 0.134 | 1.11 | 1.17 | 0.649 | 0.276 | 0.252 | 0.534 | 0.491 | 0.393 | 0.296 | 0.277 | 0.734 | 0.526 | 0.285 | 0.149 | 0.133
12 | NCI-H650 | 0.938 | 0.995 | 1.04 | 0.772 | 0.958 | 1.02 | 0.875 | 1.01 | 0.759 | 0.475 | 0.921 | 0.827 | 0.924 | 0.859 | 0.801 | 0.741 | 0.61 | 0.632 | 0.444 | 0.3
13 | NCI-H661 | 0.936 | 0.927 | 0.873 | 0.916 | 0.838 | 1.02 | 1.03 | 0.964 | 0.735 | 0.599 | 0.469 | 0.529 | 0.421 | 0.344 | 0.383 | 1.08 | 1.19 | 0.972 | 0.8 | 0.547
14 | NCI-H838 | 0.249 | 0.226 | 0.263 | 0.251 | 0.254 | 0.679 | 0.654 | 0.552 | 0.313 | 0.236 | 0.423 | 0.512 | 0.497 | 0.447 | 0.466 | 0.571 | 0.577 | 0.306 | 0.23 | 0.202
15 | NCI-H1355 | 1.04 | 1.05 | 1.06 | 1.06 | 1.1 | 1.03 | 0.719 | 0.908 | 0.722 | 0.644 | 0.45 | 0.406 | 0.415 | 0.496 | 0.366 | 1.04 | 0.781 | 0.983 | 0.585 | 0.443
16 | NCI-H1437 | 0.336 | 0.326 | 0.343 | 0.323 | 0.329 | 1.25 | 1.23 | 1.32 | 1.07 | 0.848 | 0.522 | 0.454 | 0.601 | 0.509 | 0.382 | 0.868 | 0.894 | 1.1 | 0.79 | 0.251
